Measurements published in patent US20100137342A1, “METHODS FOR TREATING VASCULAR […]” (Myriad Pharmaceuticals, Inc., priority 2007, published 2010).
Counter-ions that a name gives are not always drawn.

Tests used:
[1] = tested on: human ovarian OVCAR-3 carcinoma cells; test: Vascular disruption effects in human tumor xenograft model (tumor histology, hematoxylin and eosin); type: in vivo, mice; conditions: 24 hours after dosing; for blood vessels in the necrotic areas / tumor necrosis pattern (central area of the tumors): OVCAR-3 xenograft in Crl:Nu/Nu-nuBR mice, 10 mg/kg compound or 100 mg/kg CA4P, H&E sections
Experimental: (4-Methoxy-phenyl)-methyl-(2-methyl-quinazolin-4-yl)-amine hydrochloride was tested in a human tumor xenograft model to determine its vascular disruption effects. Crl:Nu/Nu-nuBR mice were grown and injected with 1×10^7 human ovarian OVCAR-3 carcinoma cells on the right flank and allowed to grow to various tumor volumes. Mice were then dosed with either vehicle, 100 mg/kg combretastatin A-4 phosphate (CA4P) (obtained from Toronto Research Chemicals, Ontario, Canada) or 10 mg/kg (4-Methoxy-phenyl)-methyl-(2-methyl-quinazolin-4-yl)-amine hydrochloride.
Animals were housed by groups in Positive Individual Ventilation (PIV) cages in flat-bottom cages (Thoren Caging Systems, Hazelton, Pa.) with no more than ten mice per cage. Cages contained autoclaved TEK-Fresh bedding (Harlan, Indianapolis, Ind.), which was changed every seven days. Environmental controls were set to maintain a temperature between 65° F. and 75° F. with a relative humidity of 30-70% in a 12:12 hour light:dark cycle. Animals were feed gamma-irradiated 2019 rodent chow ad libitum (Harlan, Indianapolis, Ind.). Tap water was sterilized using manufacture recommended conditions and supplied via an automated watering system ad libitum (Edstrom Industries, Waterford, Wis.). Twenty four hours after dosing, mice were sacrificed and tumors and hearts removed, fixed, sectioned and stained with hematoxylin and eosin Y (each obtained from Richard Allen Scientific, Kalamazoo, Mich.).

[2] = Phase I clinical trial, weekly intravenous administration, subjects with refractory solid tumors; type: in vivo, human; conditions: Phase 1, i.v. weekly x3 per 4 week cycle, 0.3-3.3 mg/m^2
Experimental: An open-label, dose-escalating, multiple-dose study to define the safety, tolerability and phamacokinetics of weekly intravenous administration of (4-Methoxy-phenyl)-methyl-(2-methyl-quinazolin-4-yl)-amine hydrochloride was performed. A dosing schedule (each 4 week cycle) was performed for (4-Methoxy-phenyl)-methyl-(2-methyl-quinazolin-4-yl)-amine hydrochloride weekly for 3 weeks with no infusion on the fourth week of each cycle. Subjects with refractory solid tumors were enrolled in cohorts of 3. During Cycle 1, subjects were hospitalized during each infusion of (4-Methoxy-phenyl)-methyl-(2-methyl-quinazolin-4-yl)-amine hydrochloride and remained for observation and safety evaluation for approximately 24 hours following the end of the infusion. All subject had continuous telemetry for 2 hours prior to infusion, for 1-2 hour infusion and for 3 hours after the end of the infusion. Any clinically significant electrocardiographic (ECG) wave form abnormality was recorded and prolongation of the monitoring period extended at the discretion of the principal investigator.
Electrocardiograms were obtained prior to starting the infusion and within 30 minutes of the end of infusion for each infusino of the first cycle. Electrocardiograms on Day 1 were obtained in triplicate 5 minutes apart.
Neurocognitive assessments were made by administration of the Mini-Mental State Examination (MMSE), the Hopkins Verbal Learning and timed Grooved Pegboard tests before administration of the intravenous infusion and approximately 24 hours of the infusion at each weekly administration of the first cycle.
On days 1, 8, and 15 of each cycle, vital signs were obtained prior to the first dose, at 15, 30, and 60 minutes after the initiation of the infusion, and at 0.5, 1, 1.5, 2, and 4 hours after the end of the intravenous infusion. Vital signs at all time points beyond the start of the intravenous infusion included heart rate, blood pressure and respirations. Temperature ws measured at the end of the infusion and 4 hours later.
Individual subjects were allowed to continue on repeated weekly×3 administrations every 28 days with no dose increase provided there was no unacceptable toxicity or disease progression.
Tumor response was evaluated by response evaluation criteria in solid tumors (RECIST) criteria. To prevent sever hypersensitivity reactions due to Cremophor® EL, subjects were premedicated with oral dexamethasone (20 mg) administered approximately 12 and 6 hours before the intravenous infusion with (4-Methoxy-phenyl)-methyl-(2-methyl-quinazolin-4-yl)-amine hydrochloride, diphenhydramine (50 mg) or its equivalent administered intravenously 30-60 minutes before (4-Methoxy-phenyl)-methyl-(2-methyl-quinazolin-4-yl)-amine hydrochloride, and cimetidine (300 mg) or ranitidine (50 mg) administered intravenously 30-60 minutes before (4-Methoxy-phenyl)-methyl-(2-methyl-quinazolin-4-yl)-amine hydrochloride.

## COc1ccc(N(C)c2nc(C)nc3ccccc23)cc1 [(4-Methoxy-phenyl)-methyl-(2-methyl-quinazolin-4-yl)-amine hydrochloride]
[1]
  blood vessels in the necrotic areas: consistently congested with perivascular hemorrhage
  tumor necrosis pattern (central area of the tumors): extensive necrosis with a rim of viable tumor tissue around the periphery
[1]; OVCAR-3 xenograft, 10 mg/kg compound vs 100 mg/kg CA4P
  degree of necrosis compared with CA4P treated animals: degree of necrosis appeared greater
[2]
  bradycardia: occasional episodes of bradycardia
  dose limiting toxicity: vascular in nature, manifested by an acute coronary syndrome
  intratumor bleeding: incidences of intratumor bleeding
  overall safety and tolerability: safe and tolerable
  peripheral cytotoxicity: no evidence of cytotoxity peripherally
  systolic blood pressure: dose-related increase
[2]; ECG
  effects on cardiac conduction (PR, QRS or QTc): no significant effects

## COc1ccc(/C=C\c2cc(OC)c(OC)c(OC)c2)cc1OP(=O)(O)O [CA4P, combretastatin A-4 phosphate, reference compound]
[1]
  blood vessels in the necrotic areas: consistently congested with perivascular hemorrhage
  tumor necrosis pattern (central area of the tumors): extensive necrosis with a rim of viable tumor tissue around the periphery
